Measurements reported in US11566007B2, “Ras inhibitors” (Revolution Medicines, Inc., priority 2019, dated 2023).

Assays:
NCI-H358 (K-Ras G12C) = assay: CellTiter-Glo cell viability assay, NCI-H358; format: cell-based, human; settings: Homo sapiens, NCI-H358, 120 h, NCI-H358, 5-day treatment; class symbols; read-out: Additional H358 Cell Viability assay data (K-Ras G12C, IC50)
Method in brief: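 Compounds dispensed directly onto seeded K-Ras mutant cells; plates read on day 5 after ~30 min equilibration to room temperature, by CellTiter-Glo luminescence. Signal normalized as (sample/mean DMSO)×100, then fitted to a four-parameter logistic curve.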

[1] = system: NCI-H358 cells (K-Ras G12C); assay: Potency assay: pERK in NCI-H358 cells; format: cell-based, human; settings: Homo sapiens, NCI-H358; H358 KRAS G12C; read-out: pERK EC50
Method in brief: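 pERK decrease read by AlphaLISA SureFire p-ERK1/2 or In-Cell Western after 4 h compound exposure at 37 °C, 5% CO2.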

K-Ras G12C = K-Ras G12C (Homo sapiens (Human), UniProt P01116+P62937, G12C); assay: Ras-Raf (BRAF RBD) disruption / FRET / MOA assay, KRAS G12C; format: biochemical; settings: KRAS G12C; Ras-Raf disruption/FRET/MOA assay; read-out: IC50* KRAS G12C FRET data
Sequence of K-Ras G12C (P01116-2 other isoform, or with tags, fused parts or gaps G12C): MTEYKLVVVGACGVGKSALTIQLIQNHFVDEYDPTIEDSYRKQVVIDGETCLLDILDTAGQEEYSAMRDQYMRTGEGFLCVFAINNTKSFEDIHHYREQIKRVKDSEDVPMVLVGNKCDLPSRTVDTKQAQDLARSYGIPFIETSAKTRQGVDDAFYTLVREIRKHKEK
Sequence of K-Ras G12C (P62937 whole entry): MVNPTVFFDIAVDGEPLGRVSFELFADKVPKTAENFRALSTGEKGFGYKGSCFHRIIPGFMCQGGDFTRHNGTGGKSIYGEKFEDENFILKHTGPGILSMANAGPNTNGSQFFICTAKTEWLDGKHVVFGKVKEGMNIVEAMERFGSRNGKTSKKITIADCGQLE
Method in brief: (§1)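 Compounds, top final concentration 30 μM in 10-point 3-fold series, incubated 3 hours at 25° C with nucleotide-loaded Ras, cyclophilin A and BRAF RBD.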

KRAS G12V = KRAS G12V (Homo sapiens (Human), UniProt P01116+P62937, G12V); assay: Ras-Raf (BRAF RBD) disruption / FRET / MOA assay, KRAS G12V; format: biochemical; settings: read-out: IC50* KRAS G12V FRET data
Sequence of KRAS G12V (P01116-2 other isoform, or with tags, fused parts or gaps G12V): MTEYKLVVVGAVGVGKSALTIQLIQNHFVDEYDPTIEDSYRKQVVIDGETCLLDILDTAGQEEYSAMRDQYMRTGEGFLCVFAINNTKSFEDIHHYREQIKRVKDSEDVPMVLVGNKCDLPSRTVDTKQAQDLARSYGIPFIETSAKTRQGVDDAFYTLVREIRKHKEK
Sequence of KRAS G12V (P62937 whole entry): as the sequence (P62937 whole entry) above
Method in brief: as §1

KRAS G12D = KRAS G12D (Homo sapiens (Human), UniProt P01116+P62937, G12D); assay: Ras-Raf (BRAF RBD) disruption / FRET / MOA assay, KRAS G12D; format: biochemical; settings: Ras-Raf disruption/FRET/MOA assay; class symbols; read-out: KRAS G12D FRET data IC50
Sequence of KRAS G12D (P01116-2 other isoform, or with tags, fused parts or gaps G12D): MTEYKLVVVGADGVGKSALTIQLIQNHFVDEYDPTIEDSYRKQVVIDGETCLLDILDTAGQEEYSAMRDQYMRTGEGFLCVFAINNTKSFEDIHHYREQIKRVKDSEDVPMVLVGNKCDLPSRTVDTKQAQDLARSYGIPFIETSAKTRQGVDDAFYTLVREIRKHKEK
Sequence of KRAS G12D (P62937 whole entry): as the sequence (P62937 whole entry) above
Method in brief: as §1

KRAS G13D = KRAS G13D (Homo sapiens (Human), UniProt P01116+P62937, G13D); assay: Ras-Raf (BRAF RBD) disruption / FRET / MOA assay, KRAS G13D; format: biochemical; settings: read-out: IC50* KRAS G13D FRET data
Sequence of KRAS G13D (P01116-2 other isoform, or with tags, fused parts or gaps G13D): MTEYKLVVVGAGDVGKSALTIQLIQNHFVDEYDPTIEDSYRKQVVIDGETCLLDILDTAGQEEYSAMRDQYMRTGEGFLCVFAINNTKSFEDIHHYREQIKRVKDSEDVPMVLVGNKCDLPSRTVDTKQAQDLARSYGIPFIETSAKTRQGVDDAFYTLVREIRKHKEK
Sequence of KRAS G13D (P62937 whole entry): as the sequence (P62937 whole entry) above
Method in brief: as §1

K-Ras G13C = K-Ras G13C (Homo sapiens (Human), UniProt P01116+P62937, G13C); assay: Ras-Raf (BRAF RBD) disruption / FRET / MOA assay, KRAS G13C; format: biochemical; settings: KRAS G13C; Ras-Raf disruption/FRET/MOA assay; read-out: IC50* KRAS G13C FRET data
Sequence of K-Ras G13C (P01116-2 other isoform, or with tags, fused parts or gaps G13C): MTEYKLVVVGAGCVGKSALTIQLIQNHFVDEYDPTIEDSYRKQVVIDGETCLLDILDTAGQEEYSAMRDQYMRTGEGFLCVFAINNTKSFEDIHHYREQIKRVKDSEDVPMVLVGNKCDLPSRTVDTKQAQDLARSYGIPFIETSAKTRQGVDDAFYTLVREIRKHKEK
Sequence of K-Ras G13C (P62937 whole entry): as the sequence (P62937 whole entry) above
Method in brief: as §1

KRAS G12S = KRAS G12S (Homo sapiens (Human), UniProt P01116+P62937, G12S); assay: Ras-Raf (BRAF RBD) disruption / FRET / MOA assay, KRAS G12S; format: biochemical; settings: Ras-Raf disruption/FRET/MOA assay; class symbols; read-out: KRAS G12S FRET data IC50
Sequence of KRAS G12S (P01116-2 other isoform, or with tags, fused parts or gaps G12S): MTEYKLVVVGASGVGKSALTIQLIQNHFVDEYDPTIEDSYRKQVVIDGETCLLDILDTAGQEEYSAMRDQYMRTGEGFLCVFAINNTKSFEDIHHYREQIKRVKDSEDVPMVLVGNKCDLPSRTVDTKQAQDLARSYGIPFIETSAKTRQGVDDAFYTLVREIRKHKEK
Sequence of KRAS G12S (P62937 whole entry): as the sequence (P62937 whole entry) above
Method in brief: as §1

NRAS G12C = NRAS G12C (Homo sapiens (Human), UniProt P01111+P62937, G12C); assay: Ras-Raf (BRAF RBD) disruption / FRET / MOA assay, NRAS G12C; format: biochemical; settings: read-out: IC50* NRAS G12C FRET data
Sequence of NRAS G12C (P01111 whole entry G12C): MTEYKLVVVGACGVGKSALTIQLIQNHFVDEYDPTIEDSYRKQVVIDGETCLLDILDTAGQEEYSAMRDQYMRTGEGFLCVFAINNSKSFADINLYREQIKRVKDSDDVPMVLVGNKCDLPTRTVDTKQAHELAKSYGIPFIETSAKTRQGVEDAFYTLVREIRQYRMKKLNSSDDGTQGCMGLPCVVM
Sequence of NRAS G12C (P62937 whole entry): as the sequence (P62937 whole entry) above
Method in brief: as §1

KRAS WT = KRAS WT (Homo sapiens (Human), UniProt P01116+P62937); assay: Ras-Raf (BRAF RBD) disruption / FRET / MOA assay, KRAS WT; format: biochemical; settings: read-out: IC50* KRAS WT FRET data
Sequence of KRAS WT (P01116-2 other isoform, or with tags, fused parts or gaps): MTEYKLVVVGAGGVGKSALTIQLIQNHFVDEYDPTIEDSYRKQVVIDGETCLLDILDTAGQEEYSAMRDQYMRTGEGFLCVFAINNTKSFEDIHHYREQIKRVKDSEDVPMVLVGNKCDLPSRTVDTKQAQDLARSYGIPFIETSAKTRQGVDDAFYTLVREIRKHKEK
Sequence of KRAS WT (P62937 whole entry): as the sequence (P62937 whole entry) above
Method in brief: as §1

SMILES	IC50 (NCI-H358 (K-Ras G12C)) [nM]	EC50 [1] [nM]	IC50 (K-Ras G12C) [nM]	IC50 (KRAS G12V) [nM]	IC50 (KRAS G12D) [nM]	IC50 (KRAS G13D) [nM]	IC50 (K-Ras G13C) [nM]	IC50 (KRAS G12S) [nM]	IC50 (NRAS G12C) [nM]	IC50 (KRAS WT) [nM]
C=CC(=O)Nc1cnc(C(=O)N(C)[C@H](C(=O)N[C@H]2Cc3cccc(c3)-c3ccc4c(c3)c(c(-c3cccnc3[C@H](C)OC)n4CC)CC(C)(C)COC(=O)[C@@H]3CCCN(N3)C2=O)C(C)C)n1C (atropisomer, axis not shown) [Example A524]	10 to 100	< 5000	100 to 1000	> 10000	> 10000	> 10000	100 to 1000	> 10000	100 to 1000	> 10000
C#CCn1c(-c2cccnc2[C@H](C)OC)c2c3cc(ccc31)-c1cccc(c1)C[C@H](NC(=O)[C@H](C(C)C)N(C)C(=O)[C@H]1CCN(C(=O)C=C)C1)C(=O)N1CCC[C@H](N1)C(=O)OCC(C)(C)C2 (atropisomer, axis not shown) [Example A530]	10 to 100	< 5000	100 to 1000	1000 to 10000	> 10000	> 10000	1000 to 10000	1000 to 10000	100 to 1000	1000 to 10000
CCn1c(-c2cccnc2[C@H](C)OC)c2c3cc(ccc31)-c1cccc(c1)C[C@H](NC(=O)[C@H](C(C)C)N(C)C(=O)[C@H]1CCN(C(=O)C#CC3(N(C)C)CCOCC3)C1)C(=O)N1CCC[C@H](N1)C(=O)OCC(C)(C)C2 (atropisomer, axis not shown) [Example A532]	< 10	< 5000	10 to 100	1000 to 10000	> 10000	> 10000	1000 to 10000	1000 to 10000	10 to 100	1000 to 10000
CC#CC(=O)N1CC[C@@]2(CCN([C@H](C(=O)N[C@H]3Cc4nc(cs4)-c4ccc5c(c4)c(c(-c4cccnc4[C@H](C)OC)n5CC)CC(C)(C)COC(=O)[C@@H]4CCCN(N4)C3=O)C(C)C)C2=O)C1 (atropisomer, axis not shown) [Example A535]	10 to 100	< 5000	1000 to 10000	> 10000	> 10000	> 10000	1000 to 10000	1000 to 10000	1000 to 10000	> 10000
C=CC(=O)N1CC[C@H](C(=O)N(C)[C@H](C(=O)N[C@H]2Cc3cc(O)cc(c3)-c3ccc4c(c3)c(c(-c3cc(CN(C)C)cnc3[C@H](C)OC)n4CC)CC(C)(C)COC(=O)[C@@H]3CCCN(N3)C2=O)C(C)C)C1 (atropisomer, axis not shown) [Example A536]	10 to 100	< 5000	10 to 100	100 to 1000	1000 to 10000	100 to 1000	100 to 1000	100 to 1000	10 to 100	100 to 1000
CCn1c(-c2cccnc2[C@H](C)OC)c2c3cc(ccc31)-c1cc(cc(C(F)F)c1)C[C@H](NC(=O)C(COC1CN(C(=O)C#CC(C)(C)N(C)C)C1)C(C)C)C(=O)N1CCC[C@H](N1)C(=O)OCC(C)(C)C2 (mixture of isomers) [Example A404]	10 to 100	< 5000	100 to 1000	> 10000	> 10000	> 10000	> 10000	> 10000	100 to 1000	> 10000
C=CC(=O)N1CC(OCC(C(=O)N[C@H]2Cc3cccc(c3)-c3ccc4c(c3)c(c(-c3cccnc3[C@H](C)OC)n4CC(F)(F)F)CC(C)(C)COC(=O)[C@@H]3CCCN(N3)C2=O)C(C)C)C1 (mixture of isomers) [Example A453]	100 to 1000	< 5000	1000 to 10000	> 10000	> 10000	> 10000	> 10000	> 10000	1000 to 10000	> 10000
C=CC(=O)N1CC(OCC(C(=O)N[C@H]2Cc3nc(cs3)-c3ccc4c(c3)c(c(-c3cccnc3[C@H](C)OC)n4CC)CC(C)(C)COC(=O)[C@@H]3CCCN(N3)C2=O)C(C)C)C1 (mixture of isomers) [Example A473]	10 to 100	< 5000	100 to 1000	1000 to 10000	> 10000	1000 to 10000	1000 to 10000	1000 to 10000	100 to 1000	1000 to 10000
CCn1c(-c2cccnc2[C@H](C)OC)c2c3cc(ccc31)-c1cccc(c1)C[C@H](NC(=O)[C@H](C(C)C)N(C)C(=O)[C@H]1CCN(C(=O)C#CC3CCO3)C1)C(=O)N1CCC[C@H](N1)C(=O)OCC(C)(C)C2 (mixture of isomers) [Example A509]	< 10	< 5000	< 10	1000 to 10000	> 10000	1000 to 10000	100 to 1000	1000 to 10000	< 10	1000 to 10000
CCn1c(-c2cccnc2[C@H](C)OC)c2c3cc(ccc31)-c1csc(n1)C[C@H](NC(=O)[C@H](C(C)C)N1CC[C@@]3(CCN(C(=O)C#CC(C)(C)N(C)C)C3)C1=O)C(=O)N1CCC[C@H](N1)C(=O)OCC(C)(C)C2 (single isomer, unassigned) [Example A425]	< 10	< 5000	< 10	> 10000	> 10000	> 10000	100 to 1000	1000 to 10000	10 to 100	> 10000
C=CC(=O)N1CC[C@H](C(=O)N(C)[C@H](C(=O)N[C@H]2Cc3cc(O)cc(c3)-c3ccc4c(c3)c(c(-c3ccc(CN(C)C)nc3COC)n4CC)CC(C)(C)COC(=O)[C@@H]3CCCN(N3)C2=O)C(C)C)C1 [Example A103]	100 to 1000	< 5000	10 to 100	100 to 1000	1000 to 10000	1000 to 10000	1000 to 10000	100 to 1000	10 to 100	1000 to 10000
C=CC(=O)N1CC[C@H](C(=O)N(C)[C@@H](C(=O)N[C@H]2Cc3cc(O)cc(c3)-c3ccc4c(c3)c(c(-c3cccc(CN(C)C)c3)n4CC)CC(C)(C)COC(=O)[C@@H]3CCCN(N3)C2=O)C(C)C)C1 [Example A106]	100 to 1000	< 5000	1000 to 10000	> 10000	> 10000	> 10000	> 10000	> 10000	1000 to 10000	> 10000
CCn1c(-c2cncnc2)c2c3cc(ncc31)-c1cc(O)cc(c1)C[C@H](NC(=O)[C@H](C(C)C)N(C)C(=O)[C@H]1CCN(C(=O)C#CCN(C)C)C1)C(=O)N1CCC[C@H](N1)C(=O)OCC(C)(C)C2 [Example A108]	< 10	< 5000	< 10	1000 to 10000	1000 to 10000	1000 to 10000	10 to 100	1000 to 10000	< 10	1000 to 10000
C=CC(=O)N1CC[C@H](C(=O)N(C)[C@H](C(=O)N[C@H]2Cc3cc(O)cc(c3)-c3ccc4c(c3)c(c(-c3cc(CN(C)C)nn3C)n4CC)CC(C)(C)COC(=O)[C@@H]3CCCN(N3)C2=O)C(C)C)C1 [Example A109]	100 to 1000	< 5000	100 to 1000	1000 to 10000	> 10000	> 10000	> 10000	1000 to 10000	100 to 1000	> 10000
C=CC(=O)N(C)[C@H](C(=O)N[C@H]1Cc2cc(O)cc(c2)-c2ccc3c(c2)c(c(-c2cccnc2COC)n3CC)CC(C)(C)COC(=O)[C@@H]2CCCN(N2)C1=O)C(C)C [Example A110]	100 to 1000	< 5000	100 to 1000	1000 to 10000	1000 to 10000	1000 to 10000	100 to 1000	1000 to 10000	1000 to 10000	100 to 1000
C=CC(=O)N1CC[C@H](C(=O)N(C)[C@H](C(=O)N[C@H]2Cc3cc(O)cc(c3)-c3ccc4c(c3)c(c(-c3ccc(CN(C)C)c(COC)c3)n4CC)CC(C)(C)COC(=O)[C@@H]3CCCN(N3)C2=O)C(C)C)C1 [Example A111]	10 to 100	< 5000	100 to 1000	1000 to 10000	> 10000	1000 to 10000	1000 to 10000	1000 to 10000	100 to 1000	1000 to 10000
